Source: patent US20090017486A1, “METHOD AND TEST KIT FOR THE IDENTIFICATION OF COMPOUNDS SPECIFICALLY MODULATING THE ACTION OF CORTICAL AXO-AXONIC CELLS” (priority 2005, published 2009)
“Also recorded” adds a separate entry of the source.

Key:
[1] = tested on: pyramidal cell (soma and axon initial segment); test: Pressure application of GABA to soma and axon initial segment of pyramidal cells; assay type: cell-based, rat
Protocol: (§1) For perforated patch experiments, 3 mg/ml gramicidin (Sigma) was used, dissolved in DMSO and diluted to a final concentration of 9 μg/ml in the low [Cl^−]in pipette solution. […] Membrane potentials were corrected for junction potentials. […] Pressure waves (˜5 μm in diameter) and pipette positions on the soma and along the axon initial segment (30-40 μm from the soma) were imaged and the postsynaptic cell membrane was ruptured by gentle suction pulses to allow biocytin labelling and post-hoc comparison of pipette positions with light microscopic reconstructions. Cells were excluded from analysis if basal dendrites were closer than ˜30 μm to the pressure pipette and/or initial segment.
To characterize the interaction of axo-axonic cells (AACs) and their postsynaptic neurons, first the reversal potential of GABAergic inputs arriving to the perisomatic region of pyramidal cells was determined, elicited by AACs and basket cells in layers 2/3 of rat somatosensory cortex in vitro (FIG. 1). Paired recordings of presynaptic interneurons and postsynaptic pyramidal cells were performed using the gramicidin perforated patch placed onto the axon hillock between the soma and the initial segment. […] AACs were identified based on light microscopic reconstructions and analysis showing axonal candles or cartridges specific to this cell type [Szentagothai and Arbib (1974); Somogyi (1977)]

[2] = tested on: axo-axonic cells (AACs) and postsynaptic neurons, layer 2/3 somatosensory cortex slices; test: Multiple whole-cell recordings of synaptic event sequences triggered by AACs in rat cortical slices; assay type: cell-based
Protocol: as §1

human axo-axonic cell = conditions: gabazine 20 μM
Protocol: Anaesthesia was induced with intravenous midazolam and fentanyl (0.03 mg/kg and 1-2 μg/kg, respectively). A bolus dose of propofol (1-2 mg/kg) was administered intravenously. To facilitate endotracheal intubation, the patient recieved 0.5 mg/kg rocuronium. After 120 seconds, the trachea was intubated and the patient was ventilated with a mixture of O2—N2O at a ratio of 1:2. Anaesthesia was maintained with sevoflurane at MAC volume of 1.2-1.5. Slices were incubated at room temperature for 1 hour in a solution composed of 130 mM NaCl, 3.5 mM KCl, 1 mM NaH2PO4, 24 mM NaHCO3, 1 mM CaCl2, 3 mM MgSO4 and 10 mM D(+)-glucose, saturated with 95% O2 and 5% CO2. The solution used during recordings differed only in that it contained 3 mM CaCl2 and 1.5 mM MgSO4. Recordings were obtained at ˜35° C. from up to four concomitantly recorded cells visualized in layer 2/3 by infrared differential interference contrast videomicroscopy (Olympus BX60WI microscope, Hamamatsu CCD camera, Luigs & Neumann Infrapatch set-up and two HEKA EPC 10/double patch-clamp amplifiers). Signals were filtered at 8 kHz, digitized at 16 kHz and analyzed with PULSE software (HEKA). Micropipettes (5-7 MW) were filled with three types of solutions. […] Access resistance was continuously monitored throughout perforated patch experiments to check membrane rupture. […]

[3] = gabazine 20 μM, low [Cl−]in, reversible on washout

NCCCC(=O)O [GABA, gamma-aminobutyric acid]
reversal potential of GABA response, soma ([1]; GABA 1 mM pressure application to soma, perforated patch, n=7): −71.2±2.7 mV
trials with spikes triggered below somatic threshold potential ([1]; GABA to axon initial segment, high [Cl−]in, whole cell mode, n=4 cells): 7±3 % of trials
threshold potential of spikes triggered by GABA applied to axon initial segment ([1]; high [Cl−]in intracellular solution, whole cell mode, n=4 cells): −64.2±2.8 mV
triggering short latency spikes from hyperpolarized membrane potentials ([1]; pressure application of GABA to axon initial segment, high [Cl−]in): not effective

COc1ccc(-c2ccc(=N)n(CCCC(=O)O)n2)cc1 [gabazine]
effect on disynaptic EPSPs triggered by AACs [2, 3]: blocked
effect on monosynaptic (unitary) IPSPs [2, 3]: blocked
effect on disynaptic EPSPs and downstream spikes (human axo-axonic cell): blocked

NS(=O)(=O)c1cccc2c1c([N+](=O)[O-])cc1nc(O)c(O)nc12 [NBQX]
effect on unitary IPSP ([2]; NBQX 10 μM): no effect
effect on disynaptic EPSPs triggered by AACs ([2]; NBQX 10 μM, recovery upon washout): blocked; also recorded: reversibly eliminated
